Here are results for 4 compounds from US5576310A, “11-benzaldoxime-17β-methoxy-17α-methoxymethyl-estrasdiene derivatives, methods for their production and pharmaceuticals containing such compounds” (Jenapharm GmbH, priority 1994, dated 1996).

The target of one assay is T1, glucocorticoid receptor (Rattus norvegicus, UniProt P06536).
T1 construct: receptors in the cytosol from animal target organs; from tissue; host or cells: thymus cytosol of adrenalectomized rat
T1 sequence (P06536 1-795): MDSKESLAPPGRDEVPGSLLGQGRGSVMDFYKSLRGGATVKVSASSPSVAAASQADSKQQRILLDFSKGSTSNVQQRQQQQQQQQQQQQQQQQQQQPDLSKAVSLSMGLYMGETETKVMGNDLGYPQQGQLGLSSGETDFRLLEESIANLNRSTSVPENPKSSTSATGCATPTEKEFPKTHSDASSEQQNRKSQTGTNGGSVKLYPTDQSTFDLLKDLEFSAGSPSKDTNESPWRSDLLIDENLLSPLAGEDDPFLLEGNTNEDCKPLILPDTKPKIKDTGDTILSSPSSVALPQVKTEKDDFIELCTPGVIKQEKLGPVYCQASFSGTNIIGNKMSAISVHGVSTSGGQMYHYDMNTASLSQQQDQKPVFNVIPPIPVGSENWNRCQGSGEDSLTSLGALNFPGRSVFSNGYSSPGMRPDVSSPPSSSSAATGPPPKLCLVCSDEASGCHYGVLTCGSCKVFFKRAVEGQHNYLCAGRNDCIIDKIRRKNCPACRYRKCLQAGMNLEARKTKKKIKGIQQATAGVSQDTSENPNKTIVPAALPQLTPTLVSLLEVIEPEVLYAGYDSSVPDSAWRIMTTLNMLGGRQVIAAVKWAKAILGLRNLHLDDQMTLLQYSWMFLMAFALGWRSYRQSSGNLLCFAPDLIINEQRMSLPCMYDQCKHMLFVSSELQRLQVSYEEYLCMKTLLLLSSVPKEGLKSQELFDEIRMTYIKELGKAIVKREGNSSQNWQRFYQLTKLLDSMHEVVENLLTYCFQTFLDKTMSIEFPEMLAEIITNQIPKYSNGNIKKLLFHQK
As to the kind of experiment: Receptor bonding affinity: competitive bonding of 3H-dexamethasone and test compound to glucocorticoid receptor in thymus cytosol of the adrenalectomized rat. In kind it is binding. Conditions: dexamethasone = 100%; tracer 3H-dexamethasone 20 nM; 18 hours at 0-4 °C; quotient of IC50 values x 100%. As to the method:
Measurement of bonding affinity for receptors
Receptor bonding affinity was determined by competitive bonding of a specifically binding ^3 H labelled hormone (tracer) and the compound to be tested to receptors in the cytosol from animal target organs. It was tried to obtain receptor saturation and a balanced reaction. The following incubation conditions were selected:
Glucocorticoid receptor: thymus cytosol of the adrenalectomized rat, thymi kept at -30° C., buffer: TED. Tracer: ^3 H-dexamethasone, 20 nM; reference substance: dexamethasone.
After an incubation period of 18 hours at 0°-4° C., bonded and free steroid was separated by mixing in active carbon/dextrane (1%/0.1%), centrifuging off and measuring the bonded ^3 H activity in the supernatant.
The IC50 for the compound to be tested and for the reference substance were determined from measurements in series of concentrations.

The subject of assay [1] is early gravidity in the rat. As to the kind of experiment: Inhibition of early gravidity (early abortive effect) in the rat after subcutaneous application from the 5th to 7th day of pregnancy. The format is in vivo. Conditions: for complete gravidity inhibition (N*/N) / complete gravidity inhibition (%) / ED 50 (complete gravidity inhibition): d5-d7; for complete gravidity inhibition (N*/N): N* females not pregnant / N inseminated females; for complete gravidity inhibition (N*/N) / complete gravidity inhibition (%): empty uteri; for ED 50 (complete gravidity inhibition): s.c., graphic determination. As to the method:
Early abortive effect of RU 486 and J 914 (Example 1) and
J 900 (Example 2) in the rat after subcutaneous
application from the 5th to 7th day of pregnancy (dose
0.2 ml/animal/day in benzylbenzoate/castor oil
N number of inseminated females
N* number of females not pregnant
^++ graphic determination
Inhibition of early gravidity in the rat:
Female rats are mated in the pro-oestrus. If semen is found in the vaginal smear on the next day, this day is counted as day 1 (=d1) of the gravidity. Treatment with the test substance or vehicle is applied on d5-d7, autopsy is carried out on d9. The substances are injected subcutaneously in 0.2 ml of vehicle (benzyl benzoate/castor oil 1+4).

Consider `CN(C)c1ccc([C@H]2C[C@]3(C)[C@@H](CC[C@]3(O)CCCO)[C@@H]3CCC4=CC(=O)CCC4=C32)cc1` [ZK 98299, reference compound], for which, on glucocorticoid receptor, the “Relative molar bonding affinity (RBA) for the glucocorticoid receptor” value (“Relative molar bonding affinity (RBA)” below) is 39%.

On to `CC#C[C@]1(O)CC[C@H]2[C@@H]3CCC4=CC(=O)CCC4=C3[C@@H](c3ccc(N(C)C)cc3)C[C@@]21C` [RU 486, reference compound], for which the “Relative molar bonding affinity (RBA)” value at glucocorticoid receptor is on record as 685%. Moreover, the “complete gravidity inhibition (N*/N)” value is 0/5 in assay [1] (0.3 mg/animal/day s.c.), 2/5 in assay [1] (1.0 mg/animal/day s.c.) and 5/5 in assay [1] (3.0 mg/animal/day s.c.). For the same compound, the “complete gravidity inhibition (%)” value is 0% in assay [1] (0.3 mg/animal/day s.c.), 40% in assay [1] (1.0 mg/animal/day s.c.) and 100% in assay [1] (3.0 mg/animal/day s.c.). Further, in assay [1], the “ED 50 (complete gravidity inhibition)” value stood at 1.1 mg/animal/day.

Regarding `CCOC(=O)ON=Cc1ccc([C@H]2C[C@@]3(C)[C@@H](CC[C@]3(COC)OC)[C@@H]3CCC4=CC(=O)CCC4=C32)cc1` [Example 2, 11β-[4-(ethoxycarbonyloximinomethyl)phenyl]-17β-methoxy-17α-methoxymethyl-estra-4,9-diene-3-on], the “Relative molar bonding affinity (RBA)” value at glucocorticoid receptor stood at 66%. Further, in assay [1] (0.3 mg/animal/day s.c.), the “complete gravidity inhibition (N*/N)” value is 0/5 and the “complete gravidity inhibition (%)” value came to 0%. Moreover, in assay [1] (1.0 mg/animal/day s.c.), the “complete gravidity inhibition (N*/N)” value is recorded as 9/10 and the “complete gravidity inhibition (%)” value worked out at 90%. In addition, the “inhibition capability of nidation, in words” value in assay [1] (as compared to RU 486) is listed as “superior inhibition capability of nidation”. The “ED 50 (complete gravidity inhibition)” value in assay [1] amounted to 0.6 mg/animal/day.

Regarding `COC[C@]1(OC)CC[C@H]2[C@@H]3CCC4=CC(=O)CCC4=C3[C@@H](c3ccc(C=NOC(C)=O)cc3)C[C@@]21C` [Example 1, 11β-[4-(acetyloximinomethyl)phenyl]-17β-methoxy-17α-methoxymethyl-estra-4,9-diene-3-on], on glucocorticoid receptor, the “Relative molar bonding affinity (RBA)” value worked out at 73%. In addition, the “complete gravidity inhibition (N*/N)” value is 0/6 in assay [1] (0.1 mg/animal/day s.c.), 1/5 in assay [1] (0.3 mg/animal/day s.c.), 7/10 in assay [1] (1.0 mg/animal/day s.c.) and 5/5 in assay [1] (3.0 mg/animal/day s.c.). For the same compound, the “complete gravidity inhibition (%)” value in assay [1] (0.1 mg/animal/day s.c.) was found to be 0%; in assay [1] (0.3 mg/animal/day s.c.), 20%; in assay [1] (1.0 mg/animal/day s.c.), 70%; in assay [1] (3.0 mg/animal/day s.c.) it was 100%. For the same compound, the “ED 50 (complete gravidity inhibition)” value in assay [1] worked out at 0.6 mg/animal/day.
